Source: publication PMC12838479 (Fluids and Barriers of the CNS, 2025)

Columns and labels:
BBB [1] = assay: Single time point (10 min) brain/serum ratio after iv co-injection in control and LPS-treated mice; conditions: for brain region permeability change: 10 min after iv injection, one-way ANOVA per region; for increase in brain/serum ratio (leakiness): three dose LPS vs control
Text: (§1) Treatment with LPS: Male CD-1 mice were purchased from Charles River and studied at 8–12 weeks of age. All animal studies were approved by the Institutional Animal Care and Use Committee of the Veterans Affairs Puget Sound Health Care System, an IACUC approved institution, in compliance with the Association for Assessment and Accreditation of Laboratory Animal Care International. Lipopolysaccharide (LPS) derived from Salmonella enterica subtype typhimurium (#L6511) was purchased from Sigma Chemical Company. Mice were given IP injections of approximately 0.1 ml of saline at 0, 6, or 24 h with LPS included in no injections, in only the single 0 h injection, or in all (0, 6, and 24 h) injections at a dose of 3 mg/kg LPS. Mice were studied 28 h after the 0 h injection (4 h after the last injection).
(§2) After a specified time, the abdomen was opened and arterial blood obtained from the abdominal aorta and immediately the thorax was opened, the descending thoracic aorta was clamped, both jugular veins were severed, the left ventricle of the heart was cannulated, and 20 ml of cold LR-BSA perfused in 60 s via the left ventricle of the heart in order to wash out the vascular space of the brain. After this, brains were collected and counted in a gamma counter. […] Brain/serum ratios are expressed in units of µl/g.
(§3) In some studies, mice were studied only at 10 min after the jugular injection of radioactivity. For multiple-time regression analysis, mice were sacrificed at 1, 2, 5, 10, 15, and 30 min after the jugular injection.

BBB [2] = assay: Percent of the injected dose that entered each g of brain (%Inj/g), 10 min; format: in vivo, mice; conditions: for %Inj/g-brain: 10 min; for increase in %Inj/g-brain: three injections of LPS vs control
Text: (§4) where t is the time between i.v. injection and blood draw, Cp is the level of radioactivity in serum (expressed as %Inj/ml), Cpt is the level of radioactivity in serum at time t, and τ is the dummy variable for time. Exposure time corrects for the clearance of the compound of interest from blood. The Y-intercept measures Vi (in units of µl/g), which is the vascular space and initial luminal binding at t = 0. Ki and Vi values are reported with their standard errors and the number of mice included in the linear portion of the regression curve. Slopes and intercepts were compared statistically with program in Prism 10.0 (GraphPad Inc, San Diego, CA). The percent of the injected dose that entered each g of brain (%Inj/g) was calculated after washout of the vascular space using the equation: […]
where cpm/g is the level of radioactivity in the brain tissue, g is the weight of the brain tissue, and cpmi is the amount of radioactivity injected intravenously.

BBB [3] = assay: Multiple-time regression analysis of BBB uptake (Ki, Vi) in control and LPS-treated mice; format: in vivo
Text: as §4

[4] = test system: human induced pluripotent stem cell (iPSC)-derived brain endothelial-like cells (iBECs); assay: In vitro monolayer iBEC permeability (Transwell leakage) versus TEER; format: in vitro ADME; conditions: iBEC monolayers, all TEER levels
Procedure: In Vitro BBB model: Differentiation of iBECs: The varied TEERs of iBECs were achieved during initial experiments that optimized seeding densities for differentiation of the GM25256 iPSC line. iBECs were differentiated from the GM25256 cell line using protocols described by Hollmann et al.. These resulting iBECs have been previously characterized to have many BEC traits including expression of high TEER levels and GLUT1, CLDN5, VE-Cad, PECAM-1, ZO-1, and OCLN proteins. Briefly, iPSCs were grown in E8 Medium on Matrigel in 6-well plates. When colonies were large and nearly touching, but prior to confluence, iPSCs were washed once with DPBS (Thermo Fisher Scientific) and incubated with Accutase (Stem Cell Technologies) for 3 min to yield a single cell suspension. Cells were collected via centrifugation, resuspended in E8, and counted using a hemocytometer. […] To assess barrier properties, TEER was measured 24 h after subculture using an EVOM2 voltohmeter with an EndOhm cup chamber (World Precision Instruments). […] TEER was measured approximately every 24 h thereafter. […]
Leakage was further assessed after 1–14 days post-subculture by placing in the input medium, consisting of HESFM + 1% BSA, 0.1 µCi ^14C-sucrose and 1 million CPM ^99mTc-DTPA or 3 million CPM ^99mTc-albumin per Transwell. […] Then, the radioactivity was counted in a Tricarb beta counter (Perkin Elmer) to measure ^14C-sucrose levels. […]

[5] = Single time point (10 min) brain/serum ratio after iv co-injection in control and LPS-treated mice; conditions: male, CD-1, mouse, in vivo
Text: as §1, §2, §3

[6] = 10 min, DTPA and albumin co-injected

Molecule | increase in brain/serum ratio (leakiness) (BBB [1]; [6]) [%] | %Inj/g-brain (BBB [2]; control mice) [%Inj/g-brain] | increase in %Inj/g-brain (BBB [2]) [%] | %Inj/g-brain (BBB [2]; three injections of LPS) [%Inj/g-brain] | Vi (vascular space and initial luminal binding) (BBB [3]; control mice) [µL/g] | Vi (vascular space and initial luminal binding) (BBB [3]; single injection of LPS) [µL/g] | Vi (vascular space and initial luminal binding) (BBB [3]; three injections of LPS) [µL/g] | in vitro permeability (Pe) compared with simultaneously studied sucrose [4] | also measured
O=C(O)CN(CCN(CC(=O)O)CC(=O)O)CCN(CC(=O)O)CC(=O)O (99mTc complex, metal not drawn) [DTPA, Diethylenetriaminepentaacetic acid] | 136 | 0.035 | 117 | 0.0760 | 1.62 ± 0.29 | 1.43 ± 0.334 | 1.487 ± 1.104 | essentially identical in vitro results | mean percent increase in permeability of 4 sessions (BBB [1]; 3 dose injection of LPS, DTPA and sucrose co-injected): 79.2 +/- 16%; brain region permeability change (BBB [1]; 3 injections of LPS): all regions except the olfactory bulb had a significant increase; detection of BBB disruption (BBB [1]; 10 min, DTPA and albumin co-injected, LPSx1 and LPSx3): showed disruption at the single dose of LPS as well as at the three doses; control brain/serum ratio relative to albumin (BBB [1]; 10 min, simultaneous injection of DTPA and albumin, control mice): about 5 fold; % change of brain/serum ratio relative to respective Control (BBB [1]; LPSx1, Day 1): 12%; % change of brain/serum ratio relative to respective Control (BBB [1]; LPSx1, Day 2): -0.025%; % change of brain/serum ratio relative to respective Control (BBB [1]; LPSx1, Repeat Day 2): 29%; % change of brain/serum ratio relative to respective Control (BBB [1]; LPSx3, Day 1): 79%; % change of brain/serum ratio relative to respective Control (BBB [1]; LPSx3, Day 2): 57%; BBB disruption, combined data of 4 sessions (BBB [1]; one injection of LPS): did not disrupt the BBB; brain region permeability change (BBB [1]; single injection of LPS): No brain region had a statistically significant increase in permeability; increase in permeation, combined data of 4 sessions (BBB [1]; three injections of LPS): 69%
bovine serum albumin | 111 | 0.026 | 81 | 0.0490 | 0.245 ± 0.0431 | 0.197 ± 0.0438 | 0.325 ± 0.0893 | much lower penetration than sucrose at all TEER levels | –
OC[C@H]1O[C@@](CO)(O[C@H]2O[C@H](CO)[C@@H](O)[C@H](O)[C@H]2O)[C@@H](O)[C@@H]1O [sucrose] | – | – | – | – | 8.43 ± 1.26 | 16.2 | 14.5 ± 4.82 | – | Kp at 10 min [5]: 0.00402 to 0.00518
